# Source: patent publication US8951760B2, “Method for producing an L-amino acid” (priority 2010, dated 2015)
# Tested on: L-lysine-producing bacterium, WC196 LC/pCABD2 strain
# Experiment: L-lysine production culture in small fermentation tank with addition of thiourea or urea to the medium
# Format: cell-based, Escherichia coli
# Description: The glycerol stock of the L-lysine-producing bacterium, WC196 LC/pCABD2 strain, was inoculated in an amount of one loop to the LB agar medium (1% of tryptone, 0.5% of yeast extract, 0.5% of sodium chloride, 1.5% of agarose) containing 20 mg/L of streptomycin, and cultured at 37° C. for 24 hours as static culture.
# The cells grown in the aforementioned preculture were scraped off from the medium, suspended in a 0.85% NaCl aqueous solution, and inoculated into 300 mL of MS glucose liquid fermentation medium or MS fatty acid liquid fermentation medium having the following compositions and contained in a small fermentation tank having a total volume of 1 L at a turbidity of 0.04 measured at a wavelength of 600 nm to start the culture. With the MS glucose liquid fermentation medium, the culture was performed at a culture temperature of 37° C. and a stirring rate of 300 rpm for 16 hours with the addition of 20 mg/L of streptomycin and aeration of compressed air sterilized with a sterilization filter at 1 vvm. Furthermore, pH was maintained at 6.7 with ammonia gas. With the MS fatty acid liquid fermentation medium, the culture was performed at a culture temperature of 37° C. and a stirring rate of 700 rpm for 42 hours with addition of 20 mg/L of streptomycin and aeration of compressed air sterilized with a sterilization filter at 1 vvm. Furthermore, pH was maintained at 6.7 with ammonia gas.
# The culture was performed with adding 1 mM or 5 mM thiourea as an antioxidant at the time of the start of the culture. As controls, the culture was performed under a condition in which thiourea was not added (referred to as a thiourea-free condition), and a condition in which urea was added at the same concentrations as thiourea (referred to as a urea addition condition).
# During the culture, an appropriate volume of each liquid medium was sampled, and the amount of L-lysine in the culture supernatant was measured with a Biotech Analyzer AS310 (Sakura SI). Complete consumption of the oleate added to the medium was confirmed by using a gas chromatograph GC-2014 (Shimadzu). Complete consumption of the glucose added to the medium was separately confirmed by using a Biotech Analyzer AS310. Furthermore, a Tween 80 solution was added at a final concentration of 1.0% (v/v) immediately after the end of the culture, the resultant was appropriately diluted, and turbidity was measured at a wavelength of 600 nm to measure cell amount at the time of the end of the culture.
# [1] = carbon source fatty acid (sodium oleate), additive 1 mM
# [2] = carbon source fatty acid (sodium oleate), additive 5 mM
# [3] = carbon source glucose, additive 1 mM
# [4] = carbon source glucose, additive 5 mM
SMILES,Culture time required for consumption of carbon source [1] [h],L-Lysine accumulation at the end of culture [1] [g/L],OD600 at the end of culture [1],Culture time required for consumption of carbon source [2] [h],L-Lysine accumulation at the end of culture [2] [g/L],OD600 at the end of culture [2],Culture time required for consumption of carbon source [3] [h],L-Lysine accumulation at the end of culture [3] [g/L],OD600 at the end of culture [3],Culture time required for consumption of carbon source [4] [h],L-Lysine accumulation at the end of culture [4] [g/L],OD600 at the end of culture [4]
"NC(N)=S [Thiourea, thiourea]",33.0,5.2,7.3,33.0,5.2,7.5,16.0,4.7,5.3,16.0,4.7,5.2
"NC(N)=O [Urea, urea]",41.5,4.8,6.8,41.5,4.8,6.9,16.0,4.6,5.2,16.0,4.6,5.2
